Values quoted from earlier work in US10202620B2, “Synthesis of olefinic alcohols via enzymatic terminal hydroxylation” (PROVIVI, INC., priority 2014, dated 2019).

Columns and labels:
[1] = target: T1, CYP52A4 (Candida maltosa, UniProt P16141); conditions: terminal hydroxylation, by alkane/FA chain length
T1 sequence (P16141 1-538): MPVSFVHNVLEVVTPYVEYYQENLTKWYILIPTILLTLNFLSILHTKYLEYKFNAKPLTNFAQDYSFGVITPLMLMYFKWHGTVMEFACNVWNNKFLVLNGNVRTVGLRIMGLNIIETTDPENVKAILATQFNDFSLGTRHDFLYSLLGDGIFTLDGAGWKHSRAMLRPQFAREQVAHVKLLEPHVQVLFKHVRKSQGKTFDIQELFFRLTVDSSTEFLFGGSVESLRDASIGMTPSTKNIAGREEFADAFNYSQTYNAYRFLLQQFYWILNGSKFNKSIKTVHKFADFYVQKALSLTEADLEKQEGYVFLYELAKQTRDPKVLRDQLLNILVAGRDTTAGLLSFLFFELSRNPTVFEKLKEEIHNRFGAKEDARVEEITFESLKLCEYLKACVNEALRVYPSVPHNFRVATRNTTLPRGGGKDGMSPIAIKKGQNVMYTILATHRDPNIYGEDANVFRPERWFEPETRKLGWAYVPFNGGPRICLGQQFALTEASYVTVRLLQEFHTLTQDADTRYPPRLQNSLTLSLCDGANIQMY

[2] = tested on: CYP52A3; conditions: terminal hydroxylation, by alkane/FA chain length
[3] = tested on: alkB2 Gordonia sp TF6; conditions: terminal hydroxylation, by alkane/FA chain length; 100% relative activity obtained with hexane
[4] = target: T2, AlkB P. putida GPo1 (Ectopseudomonas oleovorans, UniProt P12691); conditions: terminal hydroxylation, by alkane/FA chain length
T2 sequence (P12691 1-401): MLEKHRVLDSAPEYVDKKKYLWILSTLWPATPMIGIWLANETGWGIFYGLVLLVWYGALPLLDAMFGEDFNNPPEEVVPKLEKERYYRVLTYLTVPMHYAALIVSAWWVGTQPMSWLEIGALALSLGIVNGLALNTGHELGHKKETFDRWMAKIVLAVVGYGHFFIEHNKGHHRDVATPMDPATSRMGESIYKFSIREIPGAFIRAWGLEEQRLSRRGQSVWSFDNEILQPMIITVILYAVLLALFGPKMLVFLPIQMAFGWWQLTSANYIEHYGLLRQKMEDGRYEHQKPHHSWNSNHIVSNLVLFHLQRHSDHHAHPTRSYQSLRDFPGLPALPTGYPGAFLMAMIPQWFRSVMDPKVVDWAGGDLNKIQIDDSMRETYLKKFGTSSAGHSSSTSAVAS

[5] = tested on: CYP153A6
[6] = tested on: CYP153A16; conditions: terminal hydroxylation, by alkane/FA chain length
[7] = tested on: CYP153A P. sp.; conditions: terminal hydroxylation, by alkane/FA chain length
[8] = target: T3, LadA (Geobacillus thermodenitrificans, UniProt A4IU28); conditions: terminal hydroxylation, by alkane/FA chain length
T3 sequence (A4IU28 1-440): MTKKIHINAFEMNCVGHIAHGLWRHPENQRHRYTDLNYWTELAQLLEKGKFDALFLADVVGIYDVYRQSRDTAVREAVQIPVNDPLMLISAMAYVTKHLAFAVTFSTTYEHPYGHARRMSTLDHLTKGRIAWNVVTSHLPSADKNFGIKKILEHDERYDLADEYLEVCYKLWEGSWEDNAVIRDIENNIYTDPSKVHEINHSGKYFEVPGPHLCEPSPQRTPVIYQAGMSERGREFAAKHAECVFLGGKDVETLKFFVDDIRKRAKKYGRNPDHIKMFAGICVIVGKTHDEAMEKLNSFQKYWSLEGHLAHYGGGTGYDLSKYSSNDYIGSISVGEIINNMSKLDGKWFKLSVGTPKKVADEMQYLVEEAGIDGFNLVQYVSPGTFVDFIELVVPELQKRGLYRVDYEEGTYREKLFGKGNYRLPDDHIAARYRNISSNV

[9] = tested on: CYP52A21

In the case of CCCCCCCCCCCC [Strain C12], the “Relative activity CYP52A4 (Scheller et al., 1996, Arch. Biochem Biophys. 328: 245-254)” value (from here on “Relative activity CYP52A4”) [1] is listed as 37, the “Relative activity CYP52A3 (Scheller et al., 1996, Arch. Biochem Biophys. 328: 245-254)” value (“Relative activity CYP52A3” below) [2] is listed as 41 and the “Relative activity alkB2 Gordonia sp TF6* (Fujii et al., 2004, Biosci. Biotechnol. Biochem. 68: 2171-2177)” value (shortened to “Relative activity alkB2 Gordonia sp TF6*”) [3] is listed as 34%.

In the case of CCCCCCCCC [Strain C9], the “Relative activity AlkB P. putida GPo1 (Vanbeilen et al., 1994, Enzyme Microb. Technol. 16: 904-911)” value (“Relative activity AlkB P. putida GPo1” below) [4] is listed as 100, the “Relative activity CYP153A6 (Funhoff et al., 2006, J. Bacteriol. 188: 5220-5227)” value (from here on “Relative activity CYP153A6”) [5] is listed as 82 and the “Relative activity CYP153A16 (Scheps et al., 2011, Org. Biomol. Chem. 9: 6727-6733)” value (shortened to “Relative activity CYP153A16”) [6] is listed as 29. For the same molecule, the “Relative activity CYP153A P. sp. (Scheps et al., 2011, Org. Biomol. Chem. 9: 6727-6733)” value [7] was 69 and the “Relative activity alkB2 Gordonia sp TF6*” value [3] was 63%.

In the case of CCCCCCCCCCCCCCCCCC [Strain C18], the “Relative activity CYP52A4” value [1] is listed as 20, the “Relative activity CYP52A3” value [2] is listed as 48 and the “Relative activity LadA (Feng et al., 2007, Proc. Natl. Acad. Sci. U.S.A. 104: 5602-5607)” value (shortened to “Relative activity LadA”) [8] is listed as 78.

In the case of CCCCCCCC [Strain C8], the “Relative activity AlkB P. putida GPo1” value [4] is listed as 95, the “Relative activity CYP153A6” value [5] is listed as 100 and the “Relative activity CYP153A16” value [6] is listed as 100. The “Relative activity CYP153A P. sp. (Scheps et al., 2011, Org. Biomol. Chem. 9: 6727-6733)” value [7] was 100 and the “Relative activity alkB2 Gordonia sp TF6*” value [3] was 72%.

For CCCCCCCCCCCCCCCC(=O)O [C16 FA], the “Relative activity CYP52A4” value [1] is given as 18, the “Relative activity CYP52A3” value [2] is given as 35 and the “Relative activity CYP52A21 (Kim et al., 2007, Arch. Biochem. Biophys. 464: 213-220)” value [9] is given as 29.

In the case of CCCCCCCCCCCCCCCCCCCCCCCC [Strain C24], the “Relative activity LadA” value [8] is listed as 65.

In the case of CCCCCCCCCCC [Strain C11], the “Relative activity AlkB P. putida GPo1” value [4] is given as 6, the “Relative activity CYP153A6” value [5] is given as 1 and the “Relative activity CYP153A16” value [6] is given as less than 8. For the same molecule, the “Relative activity CYP153A P. sp. (Scheps et al., 2011, Org. Biomol. Chem. 9: 6727-6733)” value [7] was less than 6 and the “Relative activity alkB2 Gordonia sp TF6*” value [3] was 48%.

For CCCCCCCCCC [Strain C10], the “Relative activity AlkB P. putida GPo1” value [4] is listed as 60, the “Relative activity CYP153A6” value [5] is listed as 23 and the “Relative activity CYP153A16” value [6] is listed as 13. The “Relative activity CYP153A P. sp. (Scheps et al., 2011, Org. Biomol. Chem. 9: 6727-6733)” value [7] was 60 and the “Relative activity alkB2 Gordonia sp TF6*” value [3] was 66%.

For CCCCCCCCCCCCCCCCCC(=O)O [C18 FA], the “Relative activity CYP52A4” value [1] is given as 1 and the “Relative activity CYP52A3” value [2] is given as 30.

In the case of CCCCCCCCCCCCCCCCCCCCCC [Strain C22], the “Relative activity LadA” value [8] is listed as 74.

For CCCCCCCCCCCCCCCC [Strain C16], the “Relative activity CYP52A4” value [1] is listed as 33, the “Relative activity CYP52A3” value [2] is listed as 100 and the “Relative activity LadA” value [8] is listed as 100.

In the case of CCCCCCCCCCCCCCC [Strain C15], the “Relative activity LadA” value [8] is given as 83.
